Measurements reported in paper PMC8536830 (Current Biology, 2021).
“And” between values parts separate entries of the source, which are not always exact repeats. Equal values may be shown once.

Experiments:
Type in all cases: cell-based, C. elegans
[1] = biological target: T1, LGC-56 (Caenorhabditis elegans, UniProt Q10052); experiment: Two-electrode voltage clamp, antagonist inhibitory dose response in Xenopus oocytes expressing LGC-56; conditions: for IC50: Xenopus oocytes, TEVC, agonist constant at its EC50, Hill equation, three-parameter slope; for Block of LGC-56 currents by antagonist: agonist at EC50
T1 sequence (Q10052 entry or part of it): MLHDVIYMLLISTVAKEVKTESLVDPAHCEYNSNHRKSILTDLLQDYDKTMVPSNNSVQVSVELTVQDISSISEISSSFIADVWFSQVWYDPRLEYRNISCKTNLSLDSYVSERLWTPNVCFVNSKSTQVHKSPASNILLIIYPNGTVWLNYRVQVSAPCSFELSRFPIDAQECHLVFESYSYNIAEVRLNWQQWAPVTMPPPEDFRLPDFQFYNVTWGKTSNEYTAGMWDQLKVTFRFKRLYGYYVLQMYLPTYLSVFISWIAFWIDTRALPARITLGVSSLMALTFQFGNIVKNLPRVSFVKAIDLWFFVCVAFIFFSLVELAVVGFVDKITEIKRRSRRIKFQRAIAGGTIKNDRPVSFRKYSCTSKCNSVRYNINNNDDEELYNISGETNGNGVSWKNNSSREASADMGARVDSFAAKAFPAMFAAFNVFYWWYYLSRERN
Description: (§1) We also investigated the antagonist profiles of three potential antagonists: mecamylamine; spiperone; and picrotoxin. These antagonists target different binding sites and have different specificity for vertebrate receptors.
(§2) Defolliculated Xenopus laevis oocytes were obtained from EcoCyte Bioscience (Dortmund, Germany) and maintained in ND96 (in mM: 96 NaCl, 1 MgCl2, 5 HEPES, 1.8 CaCl2, 2 KCl) solution at 16°C for 3-5 days.
(§3) 5'-capped cRNA was synthesized in vitro using the T3 mMessage mMachine transcription kit according to manufacturer’s protocol (Thermo Fischer Scientific, CA, USA). RNA was then purified using the GeneJET RNA purification kit (Thermo Fischer Scientific, CA, USA) prior to cRNA injection. Defolliculated Xenopus oocytes were placed individually into 96 well plates and injected with 50nL of 500ng/μL RNA using the Roboinject system (Multi Channel Systems GmbH, Reutlingen, Germany). When two constructs were injected the total RNA concentration remained 500ng/μL, with a 1:1 ratio of the components. Injected oocytes were incubated at 16°C in ND96 until the day of recording, typically between 3-5 days post injection.
(§4) Two-electrode voltage clamp recordings were carried out using the Robocyte2 recording system or a manual TEVC set up, using an OC-725D amplifier (Multi Channel Systems, Reutlingen, Germany) and paired with a custom-made recording chamber and agar bridges from reference and bath electrodes. Glass electrodes were pulled on a P-1000 Micropipette Puller (Sutter, Ca, USA) with a resistance ranging from 0.7-2 MΩ, pipettes, containing AgCl wires, were backfilled with a 3 M KCl solution for manual recordings and 1.5M KCl and 1 M acetic acid for Robocyte2 recordings. Oocytes were clamped at −60mV unless stated otherwise. Continuous recordings were taken during application of agonists and antagonists at 500 Hz. Data was recorded using WinWCP or RoboCyte2 control software, manual data was filtered at 10 Hz.
(§5) Dose response curves were calculated from the peak current during a 10 s agonist stimulation in ND96 solution, with a 60 s ND96 wash in between doses. Data was gathered over at least two occasions, using different batches of oocytes. Normalized dose response data was fitted to a nonlinear curve using a four parameters variable slope and the EC50 and Hill slope was calculated. All further recordings were carried out with the agonist at its EC50 concentration unless stated otherwise. Ion selectivity was determined using a voltage ramp protocol of 20mV/s ranging from −80mV to +60mV in the presence or absence of the primary agonist in three different solutions: ND96, NMDG (Na^+ free) and Na Gluconate (low Cl^-) solutions. Normalized ramp curves were fitted to a linear regression line and the x intercept was compared between solutions to calculate an average Erev from 4-5 oocytes. Antagonist dose response curves were calculated from the peak current during a 10 s agonist + antagonist stimulation in ND96 solution, with the agonist concentration remaining constant. Repeated agonist stimulus protocols were carried out by measuring the peak current during a 10 s agonist stimulation at three wash intervals, 10 s, 30 s and 60 s. Kinetic measurements were calculated from a 60 s agonist perfusion. Python scripts for TEVC analysis can be found at on GitHub at hiris25/TEVC-analysis-scripts and on Zenodo https://doi.org/10.5281/zenodo.5095181.
(§6) Dose response and antagonist response curves were generated using custom-built python scripts (key resources table), which combined data from multiple recordings and normalized data by calculating I/Imax for each oocyte. Normalized mean, SD and n numbers where then imported into GraphPad where data was plotted and EC50 or IC50 values were calculated by fitting to the Hill equation using either three or four parameter slopes to obtain the highest degree of fit.

[2] = biological target: T2, LGC-54 (Caenorhabditis elegans, UniProt O17041); experiment: Two-electrode voltage clamp, antagonist inhibitory dose response in Xenopus oocytes expressing LGC-54; conditions: for IC50: Xenopus oocytes, TEVC, agonist constant at its EC50, Hill equation, three-parameter slope; for Block of LGC-54 currents by antagonist: agonist at EC50
T2 sequence (O17041 entry or part of it): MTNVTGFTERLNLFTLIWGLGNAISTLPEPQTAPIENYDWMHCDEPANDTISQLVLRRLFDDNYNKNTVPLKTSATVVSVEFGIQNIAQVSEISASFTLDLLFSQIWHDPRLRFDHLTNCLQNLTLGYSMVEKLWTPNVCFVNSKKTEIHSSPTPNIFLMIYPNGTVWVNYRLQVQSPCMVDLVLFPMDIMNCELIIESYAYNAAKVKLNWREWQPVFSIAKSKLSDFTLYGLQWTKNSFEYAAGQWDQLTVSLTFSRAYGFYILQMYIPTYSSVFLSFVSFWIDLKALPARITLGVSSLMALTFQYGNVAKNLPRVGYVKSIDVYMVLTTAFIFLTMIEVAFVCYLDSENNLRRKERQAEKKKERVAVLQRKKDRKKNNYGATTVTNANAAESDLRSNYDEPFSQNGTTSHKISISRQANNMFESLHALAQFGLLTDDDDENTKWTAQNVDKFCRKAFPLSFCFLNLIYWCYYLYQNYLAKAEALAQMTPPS
Description: as §1, §2, §3, §4, §5, §6

[3] = biological target: T1, LGC-56; experiment: Two-electrode voltage clamp, agonist-evoked currents in Xenopus oocytes expressing LGC-56; conditions: for EC50: Xenopus oocytes, TEVC, current normalized to Imax, Hill equation with variable slope, read-out: EC50, agonist-evoked dose response, LGC-56; for Channel activation in ligand screen, LGC-56: ligands screened at 100 μM, oocytes clamped at −60 mV
Description: (§7) We aimed to deorphanize C. elegans LGICs without known ligands, focusing on 5 genes in the putative monoamine-gated group: lgc-50; lgc-51; lgc-52; lgc-54; and lgc-56 (previously named ggr-3). Using heterologous overexpression in Xenopus oocytes and two-electrode voltage clamp recordings, we measured channel activity evoked by application of 11 monoamines and other neurotransmitters.
as §2, §3, §4
as §5, with “Python scripts for TEVC analysis can be found at on GitHub at hiris25/TEVC-analysis-scripts and on Zenodo https://doi.org/10.5281/zenodo.5095181.” left out

[4] = biological target: T3, LGC-50 (Caenorhabditis elegans, UniProt P41849); experiment: Two-electrode voltage clamp, agonist-evoked currents in Xenopus oocytes expressing LGC-50; conditions: ligands screened at 100 μM, oocytes clamped at −60 mV
T3 construct: lgc-50 ORF F […]; expressed in transfected cells; host or cells: Xenopus laevis oocytes injected with cRNA (plasmid pJML002, KSM: lgc-50 cDNA)
T3 sequence (P41849 20-491): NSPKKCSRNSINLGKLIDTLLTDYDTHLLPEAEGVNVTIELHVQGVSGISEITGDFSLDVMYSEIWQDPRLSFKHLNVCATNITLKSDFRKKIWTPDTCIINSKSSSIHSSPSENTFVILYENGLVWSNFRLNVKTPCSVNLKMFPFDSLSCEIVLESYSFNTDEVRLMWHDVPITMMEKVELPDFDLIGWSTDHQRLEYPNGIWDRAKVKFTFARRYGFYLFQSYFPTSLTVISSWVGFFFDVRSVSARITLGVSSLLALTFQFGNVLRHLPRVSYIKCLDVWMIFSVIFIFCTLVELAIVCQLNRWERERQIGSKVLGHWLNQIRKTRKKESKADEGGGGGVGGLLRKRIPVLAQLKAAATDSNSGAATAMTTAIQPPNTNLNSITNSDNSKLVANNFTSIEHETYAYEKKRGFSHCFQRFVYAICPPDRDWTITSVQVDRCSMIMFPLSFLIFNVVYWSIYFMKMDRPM
Description: as §7, §2
5'-capped cRNA was synthesized in vitro using the T3 mMessage mMachine transcription kit according to manufacturer’s protocol (Thermo Fischer Scientific, CA, USA). RNA was then purified using the GeneJET RNA purification kit (Thermo Fischer Scientific, CA, USA) prior to cRNA injection. […]
(§8) Two-electrode voltage clamp recordings were carried out using the Robocyte2 recording system or a manual TEVC set up, using an OC-725D amplifier (Multi Channel Systems, Reutlingen, Germany) and paired with a custom-made recording chamber and agar bridges from reference and bath electrodes. […] Data was recorded using WinWCP or RoboCyte2 control software, manual data was filtered at 10 Hz.
Dose response curves were calculated from the peak current during a 10 s agonist stimulation in ND96 solution, with a 60 s ND96 wash in between doses. […] Normalized dose response data was fitted to a nonlinear curve using a four parameters variable slope and the EC50 and Hill slope was calculated. […] Ion selectivity was determined using a voltage ramp protocol of 20mV/s ranging from −80mV to +60mV in the presence or absence of the primary agonist in three different solutions: ND96, NMDG (Na^+ free) and Na Gluconate (low Cl^-) solutions. […] Antagonist dose response curves were calculated from the peak current during a 10 s agonist + antagonist stimulation in ND96 solution, with the agonist concentration remaining constant. […] Kinetic measurements were calculated from a 60 s agonist perfusion. […]

[5] = biological target: LGC-52 (Caenorhabditis elegans, UniProt Q9NA62); experiment: Two-electrode voltage clamp, agonist-evoked currents in Xenopus oocytes expressing LGC-52; conditions: for EC50: Xenopus oocytes, TEVC, current normalized to Imax, Hill equation with variable slope, read-out: EC50, agonist-evoked dose response, LGC-52; for Channel activation in ligand screen, LGC-52: ligands screened at 100 μM, oocytes clamped at −60 mV
Chain of LGC-52 (Q9NA62 entry or part of it): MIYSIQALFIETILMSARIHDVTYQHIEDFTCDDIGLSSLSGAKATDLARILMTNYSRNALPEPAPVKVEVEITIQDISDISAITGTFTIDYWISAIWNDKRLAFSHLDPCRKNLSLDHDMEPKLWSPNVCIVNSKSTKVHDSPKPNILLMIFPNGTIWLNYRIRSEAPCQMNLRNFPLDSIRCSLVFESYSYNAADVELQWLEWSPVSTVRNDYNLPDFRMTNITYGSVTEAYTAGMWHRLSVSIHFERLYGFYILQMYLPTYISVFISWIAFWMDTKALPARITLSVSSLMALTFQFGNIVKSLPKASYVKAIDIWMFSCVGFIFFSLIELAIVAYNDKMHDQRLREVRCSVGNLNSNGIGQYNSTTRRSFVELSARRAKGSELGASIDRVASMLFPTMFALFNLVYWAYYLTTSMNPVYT
Description: as §7, §2, §3, §4
as §5, with “Python scripts for TEVC analysis can be found at on GitHub at hiris25/TEVC-analysis-scripts and on Zenodo https://doi.org/10.5281/zenodo.5095181.” left out

[6] = biological target: T2, LGC-54; experiment: Two-electrode voltage clamp, agonist-evoked currents in Xenopus oocytes expressing LGC-54; conditions: for EC50: Xenopus oocytes, TEVC, current normalized to Imax, Hill equation with variable slope, read-out: EC50, agonist-evoked dose response, LGC-54; for Channel activation in ligand screen, LGC-54: ligands screened at 100 μM, oocytes clamped at −60 mV
Description: as §7, §2, §3, §4, §5
Dose response and antagonist response curves were generated using custom-built python scripts (key resources table), which combined data from multiple recordings and normalized data by calculating I/Imax for each oocyte.

[7] = biological target: T4, LGC-51/52 (Caenorhabditis elegans, UniProt Q9NA62+X5LVB0); experiment: Two-electrode voltage clamp, agonist-evoked currents in Xenopus oocytes co-expressing LGC-51 and LGC-52; conditions: for Agonist-induced peak current of LGC-51/52 heteromer compared with LGC-52: 1 mM TYR or DA; for EC50: Xenopus oocytes co-expressing LGC-51 and LGC-52, TEVC, Hill equation with variable slope, read-out: EC50, agonist-evoked dose response, LGC-51/52 heteromer
T4 sequence (X5LVB0 entry or part of it): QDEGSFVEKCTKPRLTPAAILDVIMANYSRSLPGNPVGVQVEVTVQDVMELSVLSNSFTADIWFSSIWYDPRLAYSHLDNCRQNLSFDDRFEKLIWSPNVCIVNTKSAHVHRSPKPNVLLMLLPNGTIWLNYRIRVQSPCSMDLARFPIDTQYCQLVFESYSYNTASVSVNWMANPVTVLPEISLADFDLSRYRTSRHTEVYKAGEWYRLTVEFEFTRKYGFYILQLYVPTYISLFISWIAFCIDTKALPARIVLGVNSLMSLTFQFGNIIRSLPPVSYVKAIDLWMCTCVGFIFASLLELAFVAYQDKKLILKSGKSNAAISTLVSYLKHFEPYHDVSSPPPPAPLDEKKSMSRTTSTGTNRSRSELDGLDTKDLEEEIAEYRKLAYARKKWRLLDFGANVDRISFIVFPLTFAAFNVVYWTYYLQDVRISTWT
T4 sequence (Q9NA62 entry or part of it): as the sequence (Q9NA62 entry or part of it) above
Description: as §2, §3, §4
Dose response curves were calculated from the peak current during a 10 s agonist stimulation in ND96 solution, with a 60 s ND96 wash in between doses. Data was gathered over at least two occasions, using different batches of oocytes. Normalized dose response data was fitted to a nonlinear curve using a four parameters variable slope and the EC50 and Hill slope was calculated. All further recordings were carried out with the agonist at its EC50 concentration unless stated otherwise. Ion selectivity was determined using a voltage ramp protocol of 20mV/s ranging from −80mV to +60mV in the presence or absence of the primary agonist in three different solutions: ND96, NMDG (Na^+ free) and Na Gluconate (low Cl^-) solutions. […] Antagonist dose response curves were calculated from the peak current during a 10 s agonist + antagonist stimulation in ND96 solution, with the agonist concentration remaining constant. […] Kinetic measurements were calculated from a 60 s agonist perfusion. […]

[8] = biological target: T4, LGC-51/52; experiment: Two-electrode voltage clamp, antagonist inhibitory dose response in Xenopus oocytes expressing LGC-51/52
Description: as §1, §2
5'-capped cRNA was synthesized in vitro using the T3 mMessage mMachine transcription kit according to manufacturer’s protocol (Thermo Fischer Scientific, CA, USA). […]
as §8
Dose response curves were calculated from the peak current during a 10 s agonist stimulation in ND96 solution, with a 60 s ND96 wash in between doses. […] Normalized dose response data was fitted to a nonlinear curve using a four parameters variable slope and the EC50 and Hill slope was calculated. […] Kinetic measurements were calculated from a 60 s agonist perfusion. […]

Compound: picrotoxin
- IC50 [1]: 59 µM
- Block of LGC-56 currents by antagonist [1]: large inhibition of currents
- IC50 [2]: 43 µM
- Block of LGC-54 currents by antagonist [2]: large inhibition of currents

Compound: NCC(O)c1ccc(O)cc1 (stereo not drawn) [octopamine]
- Response of LGC-56 at very high concentration ([3]; 1 mM): small response

Compound: NCCc1c[nH]c2ccccc12 [tryptamine]
- Channel gating in ligand screen, LGC-50 [4]: gated

Compound: NCCc1ccc(O)cc1 [tyramine]
- EC50 [5]: 54 µM
- Channel activation in ligand screen, LGC-52 [5]: activated
- EC50 [6]: 13 µM
- Channel activation in ligand screen, LGC-54 [6]: activated
- EC50 [3]: 70 µM
- Channel activation in ligand screen, LGC-56 [3]: activated
- Agonist-induced peak current of LGC-51/52 heteromer compared with LGC-52 [7]: significantly higher
- EC50 [7]: 4 µM

Compound: CNC1(C)C2CCC(C2)C1(C)C (stereo not drawn) [mecamylamine]
- IC50 [1]: 1 µM
- Block of LGC-56 currents by antagonist [1]: partially blocked
- IC50 [2]: 114 µM and > 100 µM
- Block of LGC-54 currents by antagonist [2]: only a partial block

Compound: O=C(CCCN1CCC2(CC1)C(=O)NCN2c1ccccc1)c1ccc(F)cc1 [Spiperone, spiperone]
- IC50 [1]: 127 µM
- Block of LGC-56 currents by antagonist [1]: partial block
- IC50 [2]: 81 µM
- Block of LGC-54 currents by antagonist [2]: partial block
- IC50 ([8]; Xenopus oocytes, TEVC, agonist constant at its EC50, Hill equation, three-parameter slope): 170 µM
- Block of LGC-51/52 currents by antagonist ([8]; agonist at EC50): partial block

Compound: NCCc1ccc(O)c(O)c1 [dopamine]
- EC50 [5]: 0.51 µM
- Channel activation in ligand screen, LGC-52 [5]: activated
- EC50 lower for dopamine than tyramine, LGC-52 ([5]; ratio of EC50 values): 100 fold
- EC50 [6]: 18 µM
- Channel activation in ligand screen, LGC-54 [6]: activated
- EC50 [3]: 642 µM
- Channel activation in ligand screen, LGC-56 [3]: activated
- Agonist-induced peak current of LGC-51/52 heteromer compared with LGC-52 [7]: no significant effect
- EC50 [7]: 0.81 µM
